Assay results taken from patent US11542233B2, “Compounds, compositions and methods of use” (Aquinnah Pharmaceuticals, Inc., priority 2016, dated 2023).

The molecules below were run on TDP-43 aggregation in PC12 cells stably expressing GFP-tagged mutant TDP-43 (TDP-43^Q33IK::eGFP) (assay: In vitro efficacy assay: inhibition of TDP-43 inclusions, concentration-response, fluorescence microscopy). Conditions: Rattus norvegicus, PC-12, PC12 cells, 1 hour pre-treatment, 15 μM sodium arsenite for 23 hours, 10-point dose response curve.
Format: cell-based
In short: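 PC12 cells stably expressing TDP-43^Q33IK::eGFP pre-treated 1 h with compound, then stressed with 15 μM sodium arsenite for 23 h. Fluorescence microscopy gave the fraction of GFP-positive cells bearing aggregates; IC50 from concentration-response, reported in bins: A <100 nM, B 100–500 nM, C 500 nM–2 μM, D >2 μM.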

Structure (SMILES) | IC50 [nM]
CCN(C(=O)c1cc2ccccc2[nH]1)[C@H]1COC[C@H](N[C@@H]2CCc3ccccc32)C1 [Compound 506, N-((3R,5R)-5-(((R)-2,3-dihydro-1H-inden-1-yl)amino)tetrahydro-2H-pyran-3-yl)-N-ethyl-1H-indole-2-carboxamide] | 500 to 2000
CCN(C(=O)c1cc2ccccc2[nH]1)[C@@H]1COC[C@@H](N[C@@H]2CCc3ccccc32)C1 [Compound 507, N-((3S,5S)-5-(((R)-2,3-dihydro-1H-inden-1-yl)amino)tetrahydro-2H-pyran-3-yl)-N-ethyl-1H-indole-2-carboxamide] | > 2000
CCN(C(=O)c1cc2ccccc2[nH]1)C1COC[C@@H](N[C@H]2CCc3ccccc32)C1 (stereo partly drawn) [Compound 508] | > 2000
CCN(C(=O)c1cc2ccccc2[nH]1)C1CCC[C@H](N[C@H]2CCc3ccccc32)C1 (stereo partly drawn) [Compound 509] | > 2000
CCN(C(=O)c1cc2c([nH]1)CCCO2)[C@H]1CCC[C@@H](NCc2ccccc2)C1 [Compound 511, N-((1S,3R)-3-(benzylamino)cyclohexyl)-N-ethyl-1,5,6,7-tetrahydropyrano[3,2-b]pyrrole-2-carboxamide] | 100 to 500
CCN(C(=O)c1cc2c([nH]1)CCCS2(=O)=O)[C@H]1CCC[C@@H](NCc2ccccc2)C1 [Compound 512, N-((1S,3R)-3-(benzylamino)cyclohexyl)-N-ethyl-1,5,6,7-tetrahydrothiopyrano[3,2-b]pyrrole-2-carboxamide 4,4-dioxide] | 100 to 500
CCN(C(=O)c1nc2ccccc2[nH]1)[C@H]1CCC[C@@H](NCc2nnc(C3CC3)o2)C1 [Compound 513, N-((1S,3R)-3-(((5-cyclopropyl-1,3,4-oxadiazol-2-yl)methyl)amino)cyclohexyl)-N-ethyl-1H-benzo[d]imidazole-2-carboxamide] | 100 to 500
CCN(C(=O)c1nc2ccccc2[nH]1)[C@H]1CCC[C@@H](NCc2cc(C3CC3)on2)C1 [Compound 515, N-((1S,3R)-3-(((5-cyclopropylisoxazol-3-yl)methyl)amino)cyclohexyl)-N-ethyl-1H-benzo[d]imidazole-2-carboxamide] | < 100
[2H]C([2H])(N[C@@H]1CCC[C@H](N(CC)C(=O)c2cc3ccccc3[nH]2)C1)c1ccccc1 [Compound 521, N-ethyl-N-((1S,3R)-3-((phenylmethyl-d2)amino)cyclohexyl)-1H-indole-2-carboxamide] | < 100
[2H]C([2H])(N[C@@H]1CCC[C@H](N(CC)C(=O)c2nc3ccccc3[nH]2)C1)c1ccccc1 [Compound 522, N-ethyl-N-((1S,3R)-3-((phenylmethyl-d2)amino)cyclohexyl)-1H-benzo[d]imidazole-2-carboxamide] | < 100
CCN(C(=O)c1cc2cc(C#N)ccc2[nH]1)[C@H]1CCC[C@@H](NCc2oc3ccccc3c2C)C1 [Compound 535] | < 100
CCN(C(=O)c1cc2cc(C#N)ccc2[nH]1)[C@H]1CCC[C@@H](NCc2oc3ccccc3c2C#N)C1 [Compound 536, 5-cyano-N-((1S,3R)-3-(((3-cyanobenzofuran-2-yl)methyl)amino)cyclohexyl)-N-ethyl-1H-indole-2-carboxamide] | < 100
CCN(C(=O)c1cc2cc(OC(F)(F)F)ccc2[nH]1)[C@H]1CCC[C@@H](NCc2ccccc2)C1 [Compound 542, N-((1S,3R)-3-(benzylamino)cyclohexyl)-N-ethyl-5-(trifluoromethoxy)-1H-indole-2-carboxamide] | < 100
CCN(C(=O)c1cc2cc(C3CC3)ccc2[nH]1)[C@H]1CCC[C@@H](NCc2ccccc2)C1 [Compound 543] | < 100
CCN(C(=O)c1cc2cc(C(F)(F)F)ccc2[nH]1)[C@H]1CCC[C@@H](NCc2ccccc2)C1 [Compound 544] | < 100
CCN(C(=O)c1cc2cc(S(C)(=O)=O)ccc2[nH]1)[C@H]1CCC[C@@H](NCc2ccccc2)C1 [Compound 546] | 100 to 500
CCN(C(=O)c1cc2cc(F)ccc2[nH]1)[C@H]1CCC[C@@H](NCc2oc3ccccc3c2C)C1 [Compound 548] | < 100
CCN(C(=O)c1cc2cc(F)ccc2[nH]1)[C@H]1CCC[C@@H](NCc2cc3ccccc3o2)C1 [Compound 550] | < 100
CCN(C(=O)c1cc2cc(F)ccc2[nH]1)[C@H]1CCC[C@@H](NCc2oc3ccccc3c2C#N)C1 [Compound 553] | < 100
CCN(C(=O)c1nc2ccccc2[nH]1)[C@H]1CCC[C@@H](NCc2cc(C(F)(F)F)on2)C1 [Compound 554, N-ethyl-N-((1S,3R)-3-(((5-(trifluoromethyl)isoxazol-3-yl)methyl)amino)cyclohexyl)-1H-benzo[d]imidazole-2-carboxamide] | < 100

More lines, now with the values ahead:

IC50 [nM] | Structure (SMILES)
< 100 | CCN(C(=O)c1nc2ccccc2[nH]1)[C@H]1CCC[C@@H](NCc2ccc3cccn3c2)C1 [Compound 514, N-ethyl-N-((1S,3R)-3-((indolizin-6-ylmethyl)amino)cyclohexyl)-1H-benzo[d]imidazole-2-carboxamide]
< 100 | CCN(C(=O)c1nc2cc(C#N)ccc2[nH]1)[C@H]1CCC[C@@H](NCc2cccc(F)c2)C1 [Compound 516, 5-cyano-N-ethyl-N-((1S,3R)-3-((3-fluorobenzyl)amino)cyclohexyl)-1H-benzo[d]imidazole-2-carboxamide]
< 100 | CCN(C(=O)c1nc2cc(C#N)ccc2[nH]1)[C@H]1CCC[C@@H](NCc2cc3ccccc3o2)C1 [Compound 517]
< 100 | CCN(C(=O)c1nc2cc(C#N)ccc2[nH]1)[C@H]1CCC[C@@H](NCc2oc3ccccc3c2C)C1 [Compound 518]
< 100 | CCN(C(=O)c1nc2cc(C#N)ccc2[nH]1)[C@H]1CCC[C@@H](NCc2ccc(F)cc2)C1 [Compound 519]
< 100 | CCN(C(=O)c1nc2cc(C#N)ccc2[nH]1)[C@H]1CCC[C@@H](NCc2oc3ccccc3c2C#N)C1 [Compound 520]
< 100 | CCN(C(=O)c1nc2cc(F)ccc2[nH]1)[C@H]1CCC[C@@H](NCc2cc3ccccc3o2)C1 [Compound 523]
< 100 | CCN(C(=O)c1nc2cc(F)ccc2[nH]1)[C@H]1CCC[C@@H](NCc2oc3ccccc3c2C)C1 [Compound 524]
< 100 | CCN(C(=O)c1nc2cc(F)ccc2[nH]1)[C@H]1CCC[C@@H](NCc2cccc(F)c2)C1 [Compound 525]
< 100 | CCN(C(=O)c1nc2cc(F)ccc2[nH]1)[C@H]1CCC[C@@H](NCc2ccc(F)cc2)C1 [Compound 526]
< 100 | CCN(C(=O)c1nc2cc(F)ccc2[nH]1)[C@H]1CCC[C@@H](NCc2ccc(C#N)cc2)C1 [Compound 527]
< 100 | CCN(C(=O)c1nc2cc(F)ccc2[nH]1)[C@H]1CCC[C@@H](NCc2cccc(C#N)c2)C1 [Compound 528]
< 100 | CCN(C(=O)c1nc2cc(C#N)ccc2[nH]1)[C@H]1CCC[C@@H](NCc2ccc3ocnc3c2)C1 [Compound 529]
< 100 | CCN(C(=O)c1nc2ccccc2[nH]1)[C@H]1CCC[C@@H](NCc2ccc3nc(C)oc3c2)C1 [Compound 530, N-ethyl-N-((1S,3R)-3-(((2-methylbenzo[d]oxazol-6-yl)methyl)amino)cyclohexyl)-1H-benzo[d]imidazole-2-carboxamide]
100 to 500 | CCN(C(=O)c1nc2ccccc2[nH]1)[C@H]1CCC[C@@H](NCc2ccc3oc(C)nc3c2)C1 [Compound 531]
< 100 | CCN(C(=O)c1cc2cc(C#N)ccc2[nH]1)[C@H]1CCC[C@@H](NCc2ccc(F)cc2)C1 [Compound 532, 5-cyano-N-ethyl-N-((1S,3R)-3-((4-fluorobenzyl)amino)cyclohexyl)-1H-indole-2-carboxamide]
< 100 | CCN(C(=O)c1cc2cc(C#N)ccc2[nH]1)[C@H]1CCC[C@@H](NCc2cc3ccccc3o2)C1 [Compound 533]
< 100 | CCN(C(=O)c1cc2cc(C#N)ccc2[nH]1)[C@H]1CCC[C@@H](NCc2cccc(F)c2)C1 [Compound 534]
< 100 | CCN(C(=O)c1nc2cc(C#N)ccc2[nH]1)[C@H]1CCC[C@@H](NCc2cc(C3CC3)on2)C1 [Compound 537]
< 100 | CCN(C(=O)c1cc2cc(C#N)ccc2[nH]1)[C@H]1CCC[C@@H](NCc2ccccc2)C1 [Compound 538, N-((1S,3R)-3-(benzylamino)cyclohexyl)-5-cyano-N-ethyl-1H-indole-2-carboxamide]
< 100 | CCN(C(=O)c1nc2cc(OC(F)(F)F)ccc2[nH]1)[C@H]1CCC[C@@H](NCc2ccccc2)C1 [Compound 539, N-((1S,3R)-3-(benzylamino)cyclohexyl)-N-ethyl-5-(trifluoromethoxy)-1H-benzo[d]imidazole-2-carboxamide]
< 100 | CCN(C(=O)c1nc2cc(S(C)(=O)=O)ccc2[nH]1)[C@H]1CCC[C@@H](NCc2ccccc2)C1 [Compound 540]
< 100 | CCN(C(=O)c1nc2cc(C3CC3)ccc2[nH]1)[C@H]1CCC[C@@H](NCc2ccccc2)C1 [Compound 541]
< 100 | CCN(C(=O)c1nc2cc(C(F)(F)F)ccc2[nH]1)[C@H]1CCC[C@@H](NCc2ccccc2)C1 [Compound 545]
< 100 | CCN(C(=O)c1cc2cc(F)ccc2[nH]1)[C@H]1CCC[C@@H](NCc2ccccc2)C1 [Compound 547, N-((1S,3R)-3-(benzylamino)cyclohexyl)-N-ethyl-5-fluoro-1H-indole-2-carboxamide]
< 100 | CCN(C(=O)c1cc2cc(F)ccc2[nH]1)[C@H]1CCC[C@@H](NCc2cccc(F)c2)C1 [Compound 549]
< 100 | CCN(C(=O)c1cc2cc(F)ccc2[nH]1)[C@H]1CCC[C@@H](NCc2ccc(F)cc2)C1 [Compound 551]
< 100 | CCN(C(=O)c1nc2cc(F)ccc2[nH]1)[C@H]1CCC[C@@H](NCc2cc(C3CC3)on2)C1 [Compound 552, N-((1S,3R)-3-(((5-cyclopropylisoxazol-3-yl)methyl)amino)cyclohexyl)-N-ethyl-5-fluoro-1H-benzo[d]imidazole-2-carboxamide]
